Target: T1, Aβ (1-40) (Homo sapiens, UniProt P05067)
T1 construct: 25 μM of Aβ (1-40)(Bachem Inc., Torrance, Calif., USA; Lot #WM365); purchased Bachem Inc., Torrance, Calif., USA
Assay: Thioflavin T fluorometry assay of Aβ (1-40) amyloid fibril formation
Format: biochemical
Conditions: Example 1; 25 μM Aβ (1-40), 1.25 mM compound (1:50 M ratio), 1-week incubation
Text: A previously described method of measuring amyloid fibril formation utilizing Thioflavin T fluorometry (H Naiki et al, Lab. Invest. 65:104-110, 1991; H Levine III, Protein Sci. 2:404-410, 1993; H Levine III, Amyloid: Int. J. Exp. Clin. Invest. 2:1-6, 1995; H Naiki and K. Nakakuki, Lab. Invest. 74:374-383, 1996) was employed initially to identify potential therapeutic compounds capable of inhibiting Aβ amyloid fibril formation. Using this sensitive assay, any decreases or increases in fluorescence were previously shown to correlate with a decrease or increase in the amount of amyloid fibrils (H Naiki et al, Lab. Invest. 65:104-110, 1991; H Levine III, Protein Sci. 2:404-410, 1993; H Levine III, Amyloid: Int. J. Exp. Clin. Invest. 2:1-6, 1995; H Naiki and K. Nakakuki, Lab. Invest. 74:374-383, 1996), allowing one to determine the identification and extent of potential inhibitors and/or enhancers of amyloid fibril formation.
In an initial set of studies, the effects of various compounds on Aβ (1-40) fibrillogenesis was assessed. For these initial studies, 25 μM of Aβ (1-40)(Bachem Inc., Torrance, Calif., USA; Lot #WM365) was incubated in microcentrifuge tubes at 37° C. for 1 week (in triplicate), either alone, or in the presence of 1.25 mM (ie. 1:50 M ratio of Aβ:test compound) of various commercially available compounds (described below) in 150 mM Tris HCl, 10 mM NaCl, pH 7.0 (TBS). The compounds tested included glucose pentasulfate (PTI-48579, potassium salt; molecular weight=771), mannose pentasulfate (PTI-07499, potassium salt; molecular weight=771), methyl alpha-D-glucopyranoside 2,3,4,6-tetrasulfate (PTI-20049, potassium salt; molecular weight=667), methyl alpha-D-mannopyranoside 2,3,4,6-tetrasulfate (PTI-20814, potassium salt; molecular weight=667), sucrose heptasulfate (PTI-70936, potassium salt; molecular weight=1169), sucrose hexasulfate (PTI-70946, potassium salt; molecular weight=1052), and sucrose octasulfate (PTI-70011, potassium salt; molecular weight=1288).
To assess the effects of each compound on Aβ (1-40) fibril formation, 50 μl aliquots were taken from each tube for analysis at 1 hr, 1 day, 3 days, and 1 week. For each determination described above, following each incubation period, 50 μl of Aβ+/−test compounds were added to 1.2 ml of 100 μM Thioflavin T (Sigma Chemical Co., St. Louis, Mo.) in 50 mM NaPO4 (pH 6.0). […] Fluorescence emission at 482 nm was measured on a Turner instrument-model 450 fluorometer at an excitation wavelength of 450 nm. For each determination, the fluorometer was calibrated by zeroing in the presence of the Thioflavin T reagent alone, and by seting the 50 ng/ml riboflavin (Sigma Chemical Co., St. Louis, Mo.) in the Thioflavin T reagent to 1800 fluorescence units. All fluorescence determinations were based on these references and any fluorescence given off by any of the compounds in the presence of the Thioflavin T reagent was always subtracted from all pertinent readings.
For all fibrillogenesis studies utilizing Thioflavin T fluorometry, comparisons of Aβ in the presence or absence of test compounds were based on paired Student's t tests with data shown as mean+/−standard deviation. Significance was reported at the 95% (p<0.05), 99% (p<0.01) and 99.9% (p<0.001) confidence levels.
In this study, the dose-dependent effects of glucose pentasulfate (PTI-48579) on Aβ (1-40) fibrillogenesis was determined using the Thioflavin T fluorometry assay. 25 μM of Aβ (1-40) (Bachem Inc., Torrance, Calif., USA; Lot #WM365) was incubated in microcentrifuge tubes at 37° C. for 1 week (in triplicate), either alone, or in the presence of 1.25 mM (ie. 1:50 M ratio of Aβ:PTI-48579), 0.41 mM, 0.138 mM and 0.046 mM of glucose pentasulfate in 150 mM Tris HCl, 10 mM NaCl, pH 7.0 (TBS). 50 μl aliquots were taken from each tube for analysis at 1 hr, 1 day, 3 days, and 1 week using Thioflavin T fluorometry as described in section 4.1. […]

T1 sequence (P05067 672-711 limits assumed): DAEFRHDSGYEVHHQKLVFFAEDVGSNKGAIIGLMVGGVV

Compound: CO[C@H]1O[C@H](COS(=O)(=O)O)[C@@H](OS(=O)(=O)O)[C@H](OS(=O)(=O)O)[C@@H]1OS(=O)(=O)O [methyl alpha-D-mannopyranoside 2,3,4,6-tetrasulfate, reference compound]
- effect on Aβ (1-40) amyloid fibril formation (in words): ineffective inhibitors

Compound: O=S(=O)(O)OC[C@H]1O[C@@](COS(=O)(=O)O)(O[C@H]2O[C@H](COS(=O)(=O)O)[C@@H](OS(=O)(=O)O)[C@H](OS(=O)(=O)O)[C@H]2OS(=O)(=O)O)[C@@H](OS(=O)(=O)O)[C@@H]1OS(=O)(=O)O [sucrose octasulfate, reference compound]
- effect on Aβ (1-40) amyloid fibril formation (in words): ineffective inhibitors

Compound: sucrose heptasulfate [reference compound]
- effect on Aβ (1-40) amyloid fibril formation (in words): ineffective inhibitors

Compound: sucrose hexasulfate [reference compound]
- effect on Aβ (1-40) amyloid fibril formation (in words): ineffective inhibitors

Source: patent publication US7371731B2, “Methods for using glucose pentasulfate for treating amyloid associated with type II diabetes” (priority 1998, dated 2008)
